From patent US10472393B2, “Method for inhibiting ADAM proteases with cyclic peptides” (Cancer Research Technology Limited, priority 2007, dated 2019)
*1 amine or outer side, *2 acyl side, *3 side chain or, on linkers, in order; H or OH if unused. Where a SMILES comes first, the peptide text is derived from it. Where no end group is shown, it is not given here. [ ]: non-standard residue; d: D form. isoSer(2S) = O=C([C@@H](O)CN[*:1])[*:2]

What was measured:
recombinant ADAM8 = molecular target: T1, recombinant ADAM8 (Mus musculus, UniProt Q05910); test: Fluorescence assay of purified recombinant ADAM8 with fluorogenic CD23 peptide substrate; format: biochemical; details: for inhibition of ADAM8 proteolytic activity: FIG. 1B, peptides at 100 nM
T1 sequence (Q05910 17-826): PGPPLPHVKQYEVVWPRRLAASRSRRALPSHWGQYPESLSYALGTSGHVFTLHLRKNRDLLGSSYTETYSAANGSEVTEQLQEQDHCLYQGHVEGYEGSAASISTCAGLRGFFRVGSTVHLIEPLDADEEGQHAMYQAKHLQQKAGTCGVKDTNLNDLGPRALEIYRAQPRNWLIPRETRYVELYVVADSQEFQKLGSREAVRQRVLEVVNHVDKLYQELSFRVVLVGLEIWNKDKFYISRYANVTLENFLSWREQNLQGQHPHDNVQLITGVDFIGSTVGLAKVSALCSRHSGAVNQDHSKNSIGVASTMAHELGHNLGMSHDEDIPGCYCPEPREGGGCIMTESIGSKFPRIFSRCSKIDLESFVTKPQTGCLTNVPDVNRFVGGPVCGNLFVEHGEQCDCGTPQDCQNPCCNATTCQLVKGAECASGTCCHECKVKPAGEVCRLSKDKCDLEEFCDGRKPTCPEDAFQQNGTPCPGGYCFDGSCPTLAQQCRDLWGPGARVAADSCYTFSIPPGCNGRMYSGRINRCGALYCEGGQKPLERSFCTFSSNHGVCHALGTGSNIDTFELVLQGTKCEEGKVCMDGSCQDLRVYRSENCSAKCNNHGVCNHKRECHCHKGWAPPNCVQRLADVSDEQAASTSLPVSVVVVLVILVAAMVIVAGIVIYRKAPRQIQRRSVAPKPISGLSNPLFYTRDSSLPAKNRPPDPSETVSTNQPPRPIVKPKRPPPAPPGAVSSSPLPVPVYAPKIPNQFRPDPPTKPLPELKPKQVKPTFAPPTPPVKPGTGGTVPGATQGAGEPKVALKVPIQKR
Method: In the following example, the ability of cyclic peptides to inhibit the activity of a recombinant ADAM8 was tested in fluorescence assays using a fluorogenic ADAM8 substrate (Moss and Rasmussen, 2007).
(§1) Activity of purified recombinant ADAM8 was assessed by using a fluorogenic CD23 peptide (Dabcyl-[…](5-FAM)-CONH2, SEQ ID NO:19) as a substrate. 50 ng substrate was incubated with 100 ng of ADAM8 in assay buffer (25 mM TrisHCl pH 7.5, 10 mM CaCl2, 150 mM NaCl) at 37° C. in the time range of 0 to 18 hours. Potential ADAM8 inhibitors were preincubated for 30 min before addition of the substrate. As a negative control, CD23 was incubated with assay buffer. For determination of ADAM10 activity, 100 ng of the recombinant ADAM10 protein (R&D systems) was used in conjunction with the fluorogenic substrate Dabcyl-LAQA(HomoPhe) RSC (Fluorescein)-NH2 (SEQ ID NO:55) in assay buffer (TrisHCl pH 9.0, 2.5 μM ZnCl2). For both assays the final volume in each well was 150 μl. Activity was measured as increase in fluorescence resulting from ADAM8/ADAM10 to cleave the quenched fluorescent substrates (λ excitation: 485 nm; λ emission: 520 nm) using a BMG Optima plate reader fluorometer.

recombinant ADAM10 = molecular target: T2, recombinant ADAM10 (Homo sapiens, UniProt O14672); test: Fluorescence assay of recombinant ADAM10 with fluorogenic LAQA peptide substrate; format: biochemical; details: FIG. 2, peptides at 100 nM
T2 construct: purchased R&D systems
T2 sequence (O14672 214-748): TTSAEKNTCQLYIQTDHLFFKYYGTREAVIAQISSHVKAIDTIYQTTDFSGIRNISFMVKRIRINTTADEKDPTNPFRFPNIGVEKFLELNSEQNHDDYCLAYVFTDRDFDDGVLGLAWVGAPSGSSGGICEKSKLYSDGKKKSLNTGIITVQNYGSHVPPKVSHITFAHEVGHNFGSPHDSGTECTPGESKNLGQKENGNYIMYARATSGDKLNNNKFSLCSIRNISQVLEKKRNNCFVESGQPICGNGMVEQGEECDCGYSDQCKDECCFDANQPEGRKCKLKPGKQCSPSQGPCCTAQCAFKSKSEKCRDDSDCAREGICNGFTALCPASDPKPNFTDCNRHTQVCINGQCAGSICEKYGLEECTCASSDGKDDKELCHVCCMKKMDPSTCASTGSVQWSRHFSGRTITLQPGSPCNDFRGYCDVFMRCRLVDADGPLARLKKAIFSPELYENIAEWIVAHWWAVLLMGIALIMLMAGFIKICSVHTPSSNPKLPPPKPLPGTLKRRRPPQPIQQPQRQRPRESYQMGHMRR
Method: as §1

ADAM8 DC domain = molecular target: T3, ADAM8 DC domain (Mus musculus, UniProt Q05910); test: Adhesion of ADAM8-expressing cells to plates coated with recombinant ADAM8 DC domain; format: cell-based; details: FIG. 8; concentration used in the range of 10 nM
T3 construct: recombinant ADAM8 disintegrin/cysteine-rich (DC) domain; Myc (C); His6 (C); made in house; host or cells: E. coli strain TOP10
T3 sequence (Q05910 402-643 limits assumed): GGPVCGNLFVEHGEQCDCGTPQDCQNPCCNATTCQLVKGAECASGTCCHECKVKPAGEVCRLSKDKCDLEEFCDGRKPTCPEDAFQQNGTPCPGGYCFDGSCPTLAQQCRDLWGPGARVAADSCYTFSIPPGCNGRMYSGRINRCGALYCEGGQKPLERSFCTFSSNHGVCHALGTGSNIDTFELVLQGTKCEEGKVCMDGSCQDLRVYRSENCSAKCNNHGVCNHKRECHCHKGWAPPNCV
Method: In this example, peptides synthesised as described in example 1 were used to target cell adhesion mediated by the ADAM8 DC domain. A recombinant DC domain of ADAM8 was expressed and purified from E. coli and then coated onto cell culture plates. Cells over-expressing ADAM8 were then allowed to bind to the ADAM8 DC domain on the plates.
96-well plates were coated with 50 μg/ml of recombinant ADAM8 DC protein in PBS at 4° C. for 16 h. To express the recombinant DC domain of ADAM8, the cDNA fragment encoding the A8 DC domain was generated by PCR using Platinum™ Pfx polymerase (Invitrogen) with the following primers: DCE-A8f, 5′-GGTGGCCCTGTGTGTGGAAAC-3′ (SEQ ID NO:17); DCE-A8r, 5′-TACACAGTTGGGTGGTGCCCA-3′ (SEQ ID NO:18). The resulting cDNA fragment was cloned into the bacterial expression vector pTrcHis2 (Invitrogen) containing a C-terminal Myc and His6 tag. This vector was transformed into E. coli strain TOP10 (Invitrogen). Recombinant protein expression was induced with 1 mM isopropyl-1-thio-D-galactopyranoside for 5 h to overnight. […]
After application of the recombinant protein and blocking with bovine serum albumin for 1 h, 10^5 cells in PBS or medium (with 5% FCS) were seeded onto the plates. […] After 1 h incubation at 37 C, the wells were rinsed 3× with PBS, and the remaining cells were quantified by counting 10 randomly chosen viewing fields (100-fold magnification). […]

[1] = test system: C6 glioma cells overexpressing ADAM8; test: Matrigel invasion assay, C6 glioma cells overexpressing ADAM8; format: cell-based, rat
Method: (§2) In this example, the ability of cyclic peptide to inhibit ADAM8 mediated tumour cell migration through an artificial extracellular matrix (Matrigel®) was measured in a cell invasion assay. Rat glioma C6 cells were stably transfected with full length ADAM8 cDNA [Schlomann et al, 2002]. Untransfected C6 glioma cells served as controls. 5×10^4 cells were suspended in 100 μl of culture medium in the absence or presence of peptides (100 nM) and loaded into Matrigel invasion chambers (BD Biosciences, Heidelberg, Germany), which were handled according to the supplier's manual. After 20 hours incubation time, invaded cells were fixed with methanol, stained with toluidine blue, and counted. Experiments were performed in triplets and from each well, 10 viewing fields were counted manually under the microscope. Differences between the values obtained were analysed using the Mann-Whitney U test.
(§3) ADAM8 was overexpressed by transfection in fibroblast (L929) and glioma (C6) cell lines which show no invasive potential under untransfected conditions. When ADAM8 expressing plasmids were transfected into these cell lines, the cells became highly invasive in Matrigel Invasion assays (e.g. as described in example 5). […] Invasion is also mediated by a soluble variant of ADAM8, which is released upon activation of ADAM8 in these cells.

[2] = test system: mouse fibroblast (L929) cells overexpressing ADAM8; test: Matrigel invasion assay, L929 fibroblast cells overexpressing ADAM8; format: cell-based; details: FIG. 11; peptide 5 μM
Method: as §2, §3

ADAM8 = test: Specificity test, ADAM catalytic/disintegrin construct, CD23 fluorescent substrate; format: biochemical; details: read-out: ADAM inhibition with P1, IC50, 10 mM CaCl2 in buffer
Method: (§4) The maximal concentration of the inhibitor peptide was 10 μM.
(§5) ADAM catalytic/disintegrin constructs were monitored at 5-min intervals using the indicated fluorescent substrates with excitation and emission wavelengths of 485 and 530 nm, respectively. The substrates were diluted from a 10 mM stock in DMSO to 10 μM in assay buffer containing 20 mM Tris, pH 8.0, and 6×10^−4% Brij-35. For experiments with ADAM8 only, 10 mM CaCl2 was added to the buffer. Reactions were run in a 96-well plate with either inhibitor (10 nM-10 μM) in 1% DMSO or a 1% DMSO control. Background wells contained substrate and 1% DMSO and were subtracted from all other wells. Endpoints were determined in wells containing substrate and an excess of ADAM17 for the TNF-alpha substrate and ADAM8 for the CD23 substrate. Concentrations of ADAM proteins were in the range of 2.0 nM for TACE, 10 nM for ADAM9, 5 nM for ADAM10, 10 nM for ADAM8, and 2 nM for ADAM12.

ADAM9 = test: Specificity test, ADAM catalytic/disintegrin construct, TNF peptide fluorescent substrate; format: biochemical; details: maximal concentration 10 μM
Method: as §4, §5

ADAM10 = test: Specificity test, ADAM catalytic/disintegrin construct, LAQA fluorescent substrate; format: biochemical; details: maximal concentration 10 μM
Method: as §4, §5

ADAM12 = test: as above; format: biochemical; details: maximal concentration 10 μM
Method: as §4, §5

ADAM17 (TACE) = test: as above; format: biochemical; details: maximal concentration 10 μM
Method: as §4, §5

Mice (strain C57BL/6) = test: Acute and chronic toxicity study in mice; format: in vivo, mouse
Method: To test for acute and for chronic toxicity, we used dosages of 1 μg, 5 μg, and 10 μg per gram of body weight in 100 μl of injection volume. Mice (strain C57BL/6) were either injected once (acute toxicity) or weekly three-times (chronic toxicity) intraperitoneal with the dosages indicated. All mice were analysed in cohorts of n=6, and NaCl injected mice were used as controls. […] We assessed spontaneous behaviour and motor performance of the mice. […] After 4 weeks, mice were sacrificed and representative organs were dissected and assessed histologically by normal hematoxylin/eosin (HE) staining. For each cohort of mice, one representative is documented for brain (cerebellum and cortex), liver, spleen, and kidney in FIG. 13.

Row | Compound | inhibition of ADAM8 proteolytic activity (recombinant ADAM8; CD23 substrate) | concentration dependence of ADAM8 inhibition (recombinant ADAM8; FIG. 1C, 50-200 nM, CD23 substrate) | inhibition of ADAM10 (recombinant ADAM10) | inhibition of cell adhesion mediated by ADAM8 DC domain (ADAM8 DC domain) | tumour cell invasion in ADAM8 expressing cells ([1]; FIG. 4, Example 5, 20 hours) | cell invasion, dose dependence ([1]; FIG. 10, Example 7) | ADAM-8 mediated cell invasion ([1]; FIG. 12, peptide 5 μM) | ADAM-8 mediated cell invasion [2] | IC50 (ADAM8) [nM] | ADAM inhibition with P1 (ADAM9) | ADAM inhibition with P1 (ADAM10) | ADAM inhibition with P1 (ADAM12) | ADAM inhibition with P1 (ADAM17 (TACE)) | spontaneous behaviour and motor performance (Mice (strain C57BL/6); 1, 5, 10 μg per gram body weight i.p., once or weekly three-times, 4 weeks) | survival and obvious abnormalities (Mice (strain C57BL/6); 1, 5, 10 μg per gram body weight i.p., once or weekly three-times, 4 weeks observation) | histology (HE staining) of brain, liver, spleen, kidney (Mice (strain C57BL/6); FIG. 13, after 4 weeks) | IC50 (recombinant ADAM8; FIG. 1A, CD23 as substrate, read-out: IC50 for the inhibition of ADAM8) [nM]
1 | H-RLSKDK-OH (not fully specified (bridges)) [Peptide P4] | little effect on ADAM8 activity |  |  |  |  |  |  |  |  |  |  |  |  |  |  |  | 
2 | CC(C)C[C@@H]1NC(=O)[C@H](CCCNC(=N)N)NC(=O)[C@H](CCCCN)NC(=O)[C@H](CC(=O)O)NC(=O)[C@H](CCCCN)NC(=O)[C@@H](O)CNC1=O [Peptide P1, c(RLsKDK)] (cyclo(RL[isoSer(2S)]KDK)) | showed the most marked inhibition | concentration-dependant inhibition | little inhibition | very potent in the inhibition of cell adhesion | dramatically reduced tumour cell invasion | blocks cell invasion in a dose-dependent manner | significantly blocked | significantly blocked | 100 | No inh. at 10 μM | No inh. at 10 μM | No inh. at 10 μM | No inh. at 10 μM | not able to detect any differences in behaviour | all mice were alive and did not show any obvious abnormalities | did not show any evidence of toxicity | 
3 | CNC(=O)[C@H](Cc1ccccc1)NC(=O)[C@H](CC(C)C)[C@H](CSc1cccs1)C(=O)NO [BB-94, batimastat, reference compound] |  |  |  |  |  |  |  |  |  |  |  |  |  |  |  |  | ~50
